{
  "source": "PubChem BioAssay AID2060910",
  "about": "(Molecular Pharmacology Branch, DTP, NCI, 2025);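 note: spheroids exposed to compound for 7 days before readout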;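 for viability, T/C: 100% = DMSO vehicle control wells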",
  "system": "242566-281-R-J2-PDC complex spheroid viability",
  "test": "Anticancer human tumor 242566-281-R-J2-PDC patient-derived pancreatic carcinoma cell line growth inhibition [RAS]",
  "settings": "for IC50: curve of first compound; for viability, T/C: stronger effect = lower value",
  "method_in_brief": "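Tumour cells grown as complex spheroids with HUVEC endothelial cells and mesenchymal stem cells, treated with RAS pathway inhibitor combinations. Each agent spans half-log steps from near clinical Cmax, or 10 microM where Cmax is unknown.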",
  "key": {"[1]": {"settings": "second compound 0.00316 µM, first compound 0.0316 µM"}, "[2]": {"settings": "second compound 0.00316 µM, first compound 0.1 µM"}, "[3]": {"settings": "second compound 0.01 µM, first compound 0.0316 µM"}, "[4]": {"settings": "second compound 0.01 µM, first compound 0.1 µM"}, "[5]": {"settings": "second compound 0.0316 µM, first compound 0.0316 µM"}, "[6]": {"settings": "second compound 0.0316 µM, first compound 0.1 µM"}, "[7]": {"settings": "second compound 0.1 µM, first compound 0.0316 µM"}, "[8]": {"settings": "second compound 0.1 µM, first compound 0.1 µM"}, "[9]": {"settings": "second compound 0.316 µM, first compound 0.0316 µM"}, "[10]": {"settings": "second compound 0.316 µM, first compound 0.1 µM"}, "[11]": {"settings": "second compound 1 µM, first compound 0.0316 µM"}, "[12]": {"settings": "second compound 1 µM, first compound 0.1 µM"}},
  "data": [
    {"smiles": "CC(C)n1nc(-c2ccc3oc(N)nc3c2)c2c(N)ncnc21", "note": "+ C=CC(=O)N1CCN(c2nc(OCC3CCCN3C)nc3c(F)c(-c4nc(N)cc(C)c4C(F)(F)F)c(Cl)cc23)C(C)C1", "values": [
      {"measurement": "IC50", "setting": "second compound 0.00316 µM", "value": "> 0.1", "unit": "µM"},
      {"measurement": "IC50", "setting": "second compound 0.01 µM", "value": "> 0.1", "unit": "µM"},
      {"measurement": "IC50", "setting": "second compound 0.0316 µM", "value": "> 0.1", "unit": "µM"},
      {"measurement": "IC50", "setting": "second compound 0.1 µM", "value": "> 0.1", "unit": "µM"},
      {"measurement": "IC50", "setting": "second compound 0.316 µM", "value": "> 0.1", "unit": "µM"},
      {"measurement": "IC50", "setting": "second compound 1 µM", "value": "> 0.1", "unit": "µM"},
      {"measurement": "viability, T/C", "setting": "second compound 0.00316 µM, first compound 0.000316 µM", "value": 93.1, "unit": "%"},
      {"measurement": "viability, T/C", "setting": "second compound 0.00316 µM, first compound 0.001 µM", "value": 154, "unit": "%"},
      {"measurement": "viability, T/C", "setting": "second compound 0.00316 µM, first compound 0.00316 µM", "value": 91.4, "unit": "%"},
      {"measurement": "viability, T/C", "setting": "second compound 0.00316 µM, first compound 0.01 µM", "value": 78.9, "unit": "%"},
      {"measurement": "viability, T/C", "setting": "[1]", "value": 58.5, "unit": "%"},
      {"measurement": "viability, T/C", "setting": "[2]", "value": 53.8, "unit": "%"},
      {"measurement": "viability, T/C", "setting": "second compound 0.01 µM, first compound 0.000316 µM", "value": 111, "unit": "%"},
      {"measurement": "viability, T/C", "setting": "second compound 0.01 µM, first compound 0.001 µM", "value": 150, "unit": "%"},
      {"measurement": "viability, T/C", "setting": "second compound 0.01 µM, first compound 0.00316 µM", "value": 94.9, "unit": "%"},
      {"measurement": "viability, T/C", "setting": "second compound 0.01 µM, first compound 0.01 µM", "value": 72.7, "unit": "%"},
      {"measurement": "viability, T/C", "setting": "[3]", "value": 55.5, "unit": "%"},
      {"measurement": "viability, T/C", "setting": "[4]", "value": 53.6, "unit": "%"},
      {"measurement": "viability, T/C", "setting": "second compound 0.0316 µM, first compound 0.000316 µM", "value": 101, "unit": "%"},
      {"measurement": "viability, T/C", "setting": "second compound 0.0316 µM, first compound 0.001 µM", "value": 138, "unit": "%"},
      {"measurement": "viability, T/C", "setting": "second compound 0.0316 µM, first compound 0.00316 µM", "value": 83.4, "unit": "%"},
      {"measurement": "viability, T/C", "setting": "second compound 0.0316 µM, first compound 0.01 µM", "value": 79.2, "unit": "%"},
      {"measurement": "viability, T/C", "setting": "[5]", "value": 67.1, "unit": "%"},
      {"measurement": "viability, T/C", "setting": "[6]", "value": 54.6, "unit": "%"},
      {"measurement": "viability, T/C", "setting": "second compound 0.1 µM, first compound 0.000316 µM", "value": 98.5, "unit": "%"},
      {"measurement": "viability, T/C", "setting": "second compound 0.1 µM, first compound 0.001 µM", "value": 111, "unit": "%"},
      {"measurement": "viability, T/C", "setting": "second compound 0.1 µM, first compound 0.00316 µM", "value": 89.9, "unit": "%"},
      {"measurement": "viability, T/C", "setting": "second compound 0.1 µM, first compound 0.01 µM", "value": 84.3, "unit": "%"},
      {"measurement": "viability, T/C", "setting": "[7]", "value": 62, "unit": "%"},
      {"measurement": "viability, T/C", "setting": "[8]", "value": 55.7, "unit": "%"},
      {"measurement": "viability, T/C", "setting": "second compound 0.316 µM, first compound 0.000316 µM", "value": 109, "unit": "%"},
      {"measurement": "viability, T/C", "setting": "second compound 0.316 µM, first compound 0.001 µM", "value": 107, "unit": "%"},
      {"measurement": "viability, T/C", "setting": "second compound 0.316 µM, first compound 0.00316 µM", "value": 107, "unit": "%"},
      {"measurement": "viability, T/C", "setting": "second compound 0.316 µM, first compound 0.01 µM", "value": 81.5, "unit": "%"},
      {"measurement": "viability, T/C", "setting": "[9]", "value": 69.5, "unit": "%"},
      {"measurement": "viability, T/C", "setting": "[10]", "value": 55.3, "unit": "%"},
      {"measurement": "viability, T/C", "setting": "second compound 1 µM, first compound 0.000316 µM", "value": 109, "unit": "%"},
      {"measurement": "viability, T/C", "setting": "second compound 1 µM, first compound 0.001 µM", "value": 140, "unit": "%"},
      {"measurement": "viability, T/C", "setting": "second compound 1 µM, first compound 0.00316 µM", "value": 86.4, "unit": "%"},
      {"measurement": "viability, T/C", "setting": "second compound 1 µM, first compound 0.01 µM", "value": 88.3, "unit": "%"},
      {"measurement": "viability, T/C", "setting": "[11]", "value": 75.2, "unit": "%"},
      {"measurement": "viability, T/C", "setting": "[12]", "value": 55.7, "unit": "%"}
    ]},
    {"smiles": "CC1(O)CCCC1n1c(=O)c(C(F)F)cc2cnc(NC3CCN(S(C)(=O)=O)CC3)nc21", "note": "(centres undefined) + C=CC(=O)N1CCN(c2nc(OCC3CCCN3C)nc3c(F)c(-c4nc(N)cc(C)c4C(F)(F)F)c(Cl)cc23)C(C)C1", "values": [
      {"measurement": "IC50", "setting": "second compound 0.00316 µM", "value": "> 10", "unit": "µM"},
      {"measurement": "IC50", "setting": "second compound 0.01 µM", "value": "> 10", "unit": "µM"},
      {"measurement": "IC50", "setting": "second compound 0.0316 µM", "value": "> 10", "unit": "µM"},
      {"measurement": "IC50", "setting": "second compound 0.1 µM", "value": "> 10", "unit": "µM"},
      {"measurement": "IC50", "setting": "second compound 0.316 µM", "value": "> 10", "unit": "µM"},
      {"measurement": "IC50", "setting": "second compound 1 µM", "value": 9.01, "unit": "µM"},
      {"measurement": "viability, T/C", "setting": "[1]", "value": 86.6, "unit": "%"},
      {"measurement": "viability, T/C", "setting": "[2]", "value": 108, "unit": "%"},
      {"measurement": "viability, T/C", "setting": "second compound 0.00316 µM, first compound 0.316 µM", "value": 83.9, "unit": "%"},
      {"measurement": "viability, T/C", "setting": "second compound 0.00316 µM, first compound 1 µM", "value": 108, "unit": "%"},
      {"measurement": "viability, T/C", "setting": "second compound 0.00316 µM, first compound 3.16 µM", "value": 112, "unit": "%"},
      {"measurement": "viability, T/C", "setting": "second compound 0.00316 µM, first compound 10 µM", "value": 72.7, "unit": "%"},
      {"measurement": "viability, T/C", "setting": "[3]", "value": 99, "unit": "%"},
      {"measurement": "viability, T/C", "setting": "[4]", "value": 113, "unit": "%"},
      {"measurement": "viability, T/C", "setting": "second compound 0.01 µM, first compound 0.316 µM", "value": 106, "unit": "%"},
      {"measurement": "viability, T/C", "setting": "second compound 0.01 µM, first compound 1 µM", "value": 99.5, "unit": "%"},
      {"measurement": "viability, T/C", "setting": "second compound 0.01 µM, first compound 3.16 µM", "value": 123, "unit": "%"},
      {"measurement": "viability, T/C", "setting": "second compound 0.01 µM, first compound 10 µM", "value": 68.9, "unit": "%"},
      {"measurement": "viability, T/C", "setting": "[5]", "value": 94.7, "unit": "%"},
      {"measurement": "viability, T/C", "setting": "[6]", "value": 106, "unit": "%"},
      {"measurement": "viability, T/C", "setting": "second compound 0.0316 µM, first compound 0.316 µM", "value": 108, "unit": "%"},
      {"measurement": "viability, T/C", "setting": "second compound 0.0316 µM, first compound 1 µM", "value": 132, "unit": "%"},
      {"measurement": "viability, T/C", "setting": "second compound 0.0316 µM, first compound 3.16 µM", "value": 115, "unit": "%"},
      {"measurement": "viability, T/C", "setting": "second compound 0.0316 µM, first compound 10 µM", "value": 66.6, "unit": "%"},
      {"measurement": "viability, T/C", "setting": "[7]", "value": 96.3, "unit": "%"},
      {"measurement": "viability, T/C", "setting": "[8]", "value": 104, "unit": "%"},
      {"measurement": "viability, T/C", "setting": "second compound 0.1 µM, first compound 0.316 µM", "value": 97.9, "unit": "%"},
      {"measurement": "viability, T/C", "setting": "second compound 0.1 µM, first compound 1 µM", "value": 106, "unit": "%"},
      {"measurement": "viability, T/C", "setting": "second compound 0.1 µM, first compound 3.16 µM", "value": 112, "unit": "%"},
      {"measurement": "viability, T/C", "setting": "second compound 0.1 µM, first compound 10 µM", "value": 68.2, "unit": "%"},
      {"measurement": "viability, T/C", "setting": "[9]", "value": 96.5, "unit": "%"},
      {"measurement": "viability, T/C", "setting": "[10]", "value": 108, "unit": "%"},
      {"measurement": "viability, T/C", "setting": "second compound 0.316 µM, first compound 0.316 µM", "value": 89.5, "unit": "%"},
      {"measurement": "viability, T/C", "setting": "second compound 0.316 µM, first compound 1 µM", "value": 116, "unit": "%"},
      {"measurement": "viability, T/C", "setting": "second compound 0.316 µM, first compound 3.16 µM", "value": 139, "unit": "%"},
      {"measurement": "viability, T/C", "setting": "second compound 0.316 µM, first compound 10 µM", "value": 64.5, "unit": "%"},
      {"measurement": "viability, T/C", "setting": "[11]", "value": 92.1, "unit": "%"},
      {"measurement": "viability, T/C", "setting": "[12]", "value": 126, "unit": "%"},
      {"measurement": "viability, T/C", "setting": "second compound 1 µM, first compound 0.316 µM", "value": 110, "unit": "%"},
      {"measurement": "viability, T/C", "setting": "second compound 1 µM, first compound 1 µM", "value": 98.1, "unit": "%"},
      {"measurement": "viability, T/C", "setting": "second compound 1 µM, first compound 3.16 µM", "value": 112, "unit": "%"},
      {"measurement": "viability, T/C", "setting": "second compound 1 µM, first compound 10 µM", "value": 44.2, "unit": "%"}
    ]}
  ]
}
